Values joined by “and” are separate entries in the source; they are usually repeats but may differ in a detail not shown here. Identical values can stand only once. Active and inactive are the calls of the source. The calls are words filed in the database; no cut-off is given here.
Assays:
[1] = Chemical stability of compound in PBS at 20 uM at pH 8 exposed to air bubbling followed by supplementation with human serum albumin measured for 6 hrs by UV-vis spectrophotometry analysis; type: physicochemical
[2] = target: Albumin (Bos taurus, UniProt P02769); assay: Binding affinity to bovine serum albumin in phosphate buffer assessed as increase in emission anisotropy at 530 nm at 5 uM measured at pH 8 by fluorescence emission spectrum analysis; type: ADME; conditions: cattle, isolated protein
[3] = Chemical stability of compound in DMSO at 60 uM assessed as drug degradation measured at room temperature in dark after 1 day by UV-vis spectrophotometric analysis; type: physicochemical; conditions: read-out: Drug degradation
[4] = Plasma concentration in syrian hamster infected with Leishmania infantum BCN150 promastigote at 40 mg/kg/day, po for 10 days formulated with 8% v/v DMSO; type: ADME, organism-based, Mesocricetus auratus
[5] = Toxicity in Syrian hamster infected with Leishmania infantum BCN150 promastigotes assessed as effect on plasma creatinine level at 40 mg/kg/day, po for 10 days formulated with 8% v/v DMSO; type: organism-based, Mesocricetus auratus; conditions: in vivo, 240 h
[6] = Chemical stability of compound in PBS assessed as decrease in absorbance at 60 uM at pH 7 to 8 and 25 degC measured within 50 mins under dark conditions by UV-vis spectrophotometry analysis; type: physicochemical; conditions: read-out: Drug degradation
[7] = Toxicity in Syrian hamster infected with Leishmania infantum BCN150 promastigotes assessed as adverse effects at 20 mg/kg/every 12 hrs, po for 10 days formulated with 50% v/v cyclodextrin measured daily; type: organism-based, Mesocricetus auratus; conditions: in vivo
[8] = tested on: Leishmania donovani; assay: Antileishmanial activity against antimony sensitive Leishmania donovani BPK091 promastigotes infected in C57BL/6 mouse bone marrow-derived macrophages assessed as reduction in parasite load at 10 uM treated with compound at 24 hrs post-infection measured after 72 hrs post infection by q-PCR analysis relative to control; type: functional
[9] = tested on: Leishmania infantum; assay: Antileishmanial activity against Leishmania infantum amastigotes infected in Syrian hamster assessed as parasite load within spleen at 40 mg/kg/day, po for 10 days formulated with 8% v/v DMSO (reference value: 9151063.431 +/- 2606154.975/g); type: functional
[10] = tested on: Leishmania infantum; assay: Antileishmanial activity against Leishmania infantum amastigotes infected in Syrian hamster assessed as parasite load within liver at 40 mg/kg/day, po for 10 days formulated with 8% v/v DMSO (reference value: 5333333.333 +/- 3011090.611/g); type: functional
[11] = Cmax in BALB/c mouse at 20 mg/kg, po measured upto 72 hrs by snapshot method; type: ADME, organism-based; parameters: dose 20 mg/kg, route oral; conditions: in vivo
[12] = Toxicity in Syrian hamster infected with Leishmania infantum BCN150 promastigotes assessed as effect on plasma urea level at 40 mg/kg/day, po for 10 days formulated with 8% v/v DMSO; type: organism-based, Mesocricetus auratus; conditions: in vivo, 240 h
[13] = Half-life in BALB/c mouse at 20 mg/kg, po measured upto 72 hrs by snapshot method; type: ADME, organism-based; conditions: in vivo
[14] = Toxicity in Syrian hamster infected with Leishmania infantum BCN150 promastigotes assessed as effect on alkaline phosphatase level at 40 mg/kg/day, po for 10 days formulated with 8% v/v DMSO measured after the last treatment; type: organism-based, Mesocricetus auratus; conditions: in vivo, 240 h
[15] = tested on: WI-38; assay: Cytotoxicity against human WI38 cells incubated for 48 hrs by Celltiter-Glo luminescence assay; type: cell-based; conditions: wi-38, 48 h
[16] = Half-life in BALB/c mouse at 1 mg/kg, iv measured upto 72 hrs by snapshot method; type: ADME, organism-based; conditions: in vivo
[17] = Chemical stability of compound in PBS assessed as decrease in absorbance at 60 uM at pH 7 to 8 and 25 degC measured within 20 mins under dark conditions by UV-vis spectrophotometry analysis; type: physicochemical; conditions: read-out: Drug degradation
[18] = tested on: Leishmania infantum; assay: Anti-leishmanial activity against Leishmania infantum BCN150 promastigotes infected in Syrian hamster assessed as decrease in anti-leishmanial IgG level at 40 mg/kg/day, po for 10 days formulated with […] v/v DMSO by ELISA; type: functional, organism-based
[19] = Selectivity index, ratio of CC50 for human THP1 cells to EC50 for luciferase expressing intracellular amastigote stage of Leishmania infantum infected in human THP1 cells; type: toxicity, cell-based; conditions: read-out: Ratio CC50/EC50
[20] = target: CYP2C9 (Homo sapiens, UniProt P11712); assay: Inhibition of human microsomal CYP2C9 expressed in baculovirus infected insect cells at 10 uM using luciferin-H as substrate preincubated with enzyme/substrate mixture for 30 mins followed by further incubation with NADPH for 30 mins by CYP450 luciferase Glo assay relative to control; type: ADME; conditions: probe luciferin-H
[21] = tested on: Leishmania infantum; assay: Anti-leishmanial activity against Leishmania infantum BCN150 promastigotes infected in Syrian hamster assessed as decrease in anti-leishmanial IgG level at 40 mg/kg/day, po for 10 days formulated with 30 to 50 % v/v cyclodextrin by ELISA; type: functional, organism-based
[22] = Toxicity in Syrian hamster infected with Leishmania infantum BCN150 promastigotes assessed as liver weight at 40 mg/kg/day, po for 10 days formulated with 8% v/v DMSO (reference value: 5.874 +/- 0.414 g); type: organism-based, Mesocricetus auratus; conditions: in vivo, 240 h
[23] = Tmax in BALB/c mouse at 1 mg/kg, iv measured upto 72 hrs by snapshot method; type: ADME, organism-based; conditions: in vivo
[24] = Toxicity in Syrian hamster infected with Leishmania infantum BCN150 promastigotes assessed as spleen weight at 20 mg/kg/day, po for 10 days (reference value: 0.182 +/- 0.036 g); type: organism-based, Mesocricetus auratus; conditions: in vivo, 240 h
[25] = tested on: Leishmania infantum; assay: Antileishmanial activity against Leishmania infantum amastigotes infected in Syrian hamster assessed as reduction in parasite load in spleen at 20 mg/kg/day, po for 10 days relative to control; type: functional; conditions: 240 h
[26] = Toxicity in Syrian hamster infected with Leishmania infantum BCN150 promastigotes assessed as nausea at 20 mg/kg/day, po for 10 days measured daily; type: organism-based, Mesocricetus auratus; conditions: in vivo, 240 h
[27] = Toxicity in Syrian hamster infected with Leishmania infantum BCN150 promastigotes assessed as effect on plasma creatinine level at 20 mg/kg/day, po for 10 days measured after the last treatment; type: organism-based, Mesocricetus auratus; conditions: in vivo, 240 h
[28] = Toxicity in Syrian hamster infected with Leishmania infantum BCN150 promastigotes assessed as spleen lesions at 20 mg/kg/day, po for 10 days; type: organism-based, Mesocricetus auratus; conditions: in vivo, 240 h
[29] = Toxicity in Syrian hamster infected with Leishmania infantum BCN150 promastigotes assessed as effect on AST level at 20 mg/kg/day, po for 10 days measured after the last treatment; type: organism-based, Mesocricetus auratus; conditions: in vivo, 240 h

Albumin, sequence (P02769 whole entry): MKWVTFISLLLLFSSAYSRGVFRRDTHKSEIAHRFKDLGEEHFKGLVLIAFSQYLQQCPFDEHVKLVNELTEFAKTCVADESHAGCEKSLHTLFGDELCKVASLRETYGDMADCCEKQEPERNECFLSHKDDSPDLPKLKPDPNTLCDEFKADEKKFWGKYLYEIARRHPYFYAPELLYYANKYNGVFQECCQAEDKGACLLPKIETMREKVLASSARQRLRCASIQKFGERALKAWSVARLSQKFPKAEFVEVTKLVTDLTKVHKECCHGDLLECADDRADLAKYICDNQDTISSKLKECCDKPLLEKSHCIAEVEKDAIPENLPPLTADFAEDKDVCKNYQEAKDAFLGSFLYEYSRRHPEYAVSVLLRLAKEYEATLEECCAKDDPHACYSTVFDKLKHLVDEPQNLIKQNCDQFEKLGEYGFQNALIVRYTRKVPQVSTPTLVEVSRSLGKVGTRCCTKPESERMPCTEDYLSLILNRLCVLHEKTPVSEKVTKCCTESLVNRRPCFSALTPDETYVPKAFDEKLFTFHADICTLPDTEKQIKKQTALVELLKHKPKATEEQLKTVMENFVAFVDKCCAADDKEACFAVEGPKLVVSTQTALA
CYP2C9, sequence (P11712 whole entry): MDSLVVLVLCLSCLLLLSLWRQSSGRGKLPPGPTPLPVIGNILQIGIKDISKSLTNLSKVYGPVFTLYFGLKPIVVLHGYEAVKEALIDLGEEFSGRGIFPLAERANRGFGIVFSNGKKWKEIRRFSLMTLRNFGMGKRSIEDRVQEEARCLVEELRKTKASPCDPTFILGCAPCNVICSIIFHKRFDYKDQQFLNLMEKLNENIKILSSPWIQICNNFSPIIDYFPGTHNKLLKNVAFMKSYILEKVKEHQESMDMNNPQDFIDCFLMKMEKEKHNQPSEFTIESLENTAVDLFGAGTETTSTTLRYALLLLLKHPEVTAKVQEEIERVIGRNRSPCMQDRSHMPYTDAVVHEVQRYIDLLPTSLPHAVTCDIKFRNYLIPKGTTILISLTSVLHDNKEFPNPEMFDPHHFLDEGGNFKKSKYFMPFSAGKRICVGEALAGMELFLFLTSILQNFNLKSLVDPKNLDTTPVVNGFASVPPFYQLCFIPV

Structure (SMILES): COc1ccc2oc(-c3csc4ccccc34)c(O)c(=O)c2c1
- Stability [1]: Stable
- Activity [2]: Active
- degraded at 24 h, 60 µM [3]: 1%
- concentration at 240 h [4]: 44 nM
- Activity [5]: Non-Toxic
- degraded at 50 min, 60 µM [6]: 80%
- Activity [7]: Non-Toxic
- inhibition at 10 µM [8]: 69%
- Activity [9]: 6785423.957 g⁻¹
- Activity [10]: 4285714.286 g⁻¹
- Cmax [11]: 1.96 µM and 630 ng/mL
- Activity [12]: Non-Toxic
- half-life [13]: 46.9 h
- Activity [14]: Non-Toxic
- Activity [15]: Non-Toxic
- half-life [16]: 63.2 h
- degraded at 20 min, 60 µM [17]: 50%
- inhibition [18]: Active
- selectivity ratio [19]: 17
- inhibition at 0.5 h, 10 µM [20]: -10%
- inhibition [21]: Active
- Activity [22]: 5.444 g
- Tmax [23]: 4.8 min

Structure (SMILES): CCCCCCCCCCCCCCCCOP(=O)([O-])OCC[N+](C)(C)C [MILTEFOSINE]
- Activity [24]: 0.191 g
- inhibition in vivo at 20 mg/kg/day [25]: 97.3%
- Activity [26]: Toxic
- Activity [27]: Non-Toxic
- Activity [28]: Non-Toxic
- Activity [29]: Non-Toxic
